The test system of one assay is MV4-11 cells. Briefly: MV4-11 cellular proliferative assay, Assay Format A (CellTiter-Glo, 120 hours). Format: cell-based. The note with it: Homo sapiens. As to the method:
An MV4-11 proliferation assay was used to test the ability of compounds to reduce cell viability. MV4-11 cells (ATCC #CRL9591) were grown in IMDM medium (11510596, Gibco) supplemented with 10% fetal bovine serum (F7524, Gibco) and 1% Penicillin/Streptomycin (15140-122, Gibco) at 37° C. with 5% CO2. Cells were seeded in 384-well Elplasia plates (4447, Corning) at a density of 50 cells/well and treated with vehicle (DMSO) or compounds (10 serial semi-log dilutions, 30 μM as top concentration).
After 120 hours of treatment, cells were incubated for 10 min at RT with the CellTiter-Glo (CTG) reagent (G7571, Promega). Measurement of the luminescence signal was performed on a microplate reader (Ensight, PerkinElmer). CTG reagent measures the amount of ATP, which is directly proportional to the number of cells, to determine the number of viable cells in culture.
The data were analysed as follows:
where x is the measured raw signal value of a well, (cr) is the median of the measured signal values for the Central Reference (DMSO) wells on a plate, (sr) is the median of the measured signal values for the Scale Reference (reference compound) wells on a plate.
where the experimental set-up assumes the Hill parameters in certain ranges: S0~Central Reference (CR) from normalization (=Bottom), Sinf~Scale Reference (SR) from normalization (=Top), nHill~1, AC50~within the measured concentration range.

In another assay the target is T1, MLLT1 (Homo sapiens, UniProt Q03111).
T1 construct: host or cells: MV4-11
T1 sequence (Q03111 1-559): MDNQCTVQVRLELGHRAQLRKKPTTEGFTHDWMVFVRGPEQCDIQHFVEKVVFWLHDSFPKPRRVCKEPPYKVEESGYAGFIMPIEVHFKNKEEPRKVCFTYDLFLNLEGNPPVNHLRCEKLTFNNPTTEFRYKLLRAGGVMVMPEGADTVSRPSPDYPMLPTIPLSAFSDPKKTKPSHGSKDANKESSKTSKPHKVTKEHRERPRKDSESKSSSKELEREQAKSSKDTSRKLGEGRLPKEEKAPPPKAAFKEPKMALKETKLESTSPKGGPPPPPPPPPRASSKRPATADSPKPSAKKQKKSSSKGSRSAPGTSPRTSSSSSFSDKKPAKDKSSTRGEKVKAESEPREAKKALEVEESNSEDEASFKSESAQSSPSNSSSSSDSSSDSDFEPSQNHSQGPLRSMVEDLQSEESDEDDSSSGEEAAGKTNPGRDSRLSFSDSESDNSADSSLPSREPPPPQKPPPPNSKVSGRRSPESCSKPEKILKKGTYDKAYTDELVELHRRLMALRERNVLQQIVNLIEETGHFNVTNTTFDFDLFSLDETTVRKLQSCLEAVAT
Briefly: MLLT1 degradation assay in MV4-11 cells (JESS chemiluminescent detection), three concentrations, 24 h. The class given is cell-based. The settings on record: with respect to DMSO control. The method in brief: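 MV4-11 cells treated 24 h at 37° C, 5% CO2 with 1000, 100 and 10 nM compound (0.1% DMSO final). MLLT1 quantified by automated capillary chemiluminescent immunodetection; band peak area expressed as % degradation relative to DMSO control.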

Take `CN1CCC[C@@H]1c1cc2cnc(NC(=O)c3ccc(OCCC#Cc4cccc5c4CN(C4CCC(=O)NC4=O)C5=O)cc3)cc2[nH]1` (stereo partly drawn) [Example 19, 4-((4-(2-(2,6-dioxopiperidin-3-yl)-1-oxoisoindolin-4-yl)but-3-yn-1-yl)oxy)-N-(2-((R)-1-methylpyrrolidin-2-yl)-1H-pyrrolo[3,2-c]pyridin-6-yl)benzamide]: the IC50 (commonly the concentration at which inhibition is half-maximal) with MV4-11 cells is not above 0.1 µM. In addition, on MLLT1, the “MLLT1% Degradation @ 0.01 μM” value is reported as “B (Category B: 50% ≤ B < 75% degradation)”, the “MLLT1% Degradation @ 0.1 μM” value is “A (Category A: A ≥ 75% degradation)” and the “MLLT1% Degradation @ 1 μM” value is listed as “A (Category A: A ≥ 75% degradation)”.

With `CN1CCC[C@@H]1c1cc2cnc(NC(=O)c3cccc(-c4cnn(CCCC5CCN(c6cccc7c6C(=O)N(C6CCC(=O)NC6=O)C7=O)CC5)c4)c3)cc2[nH]1` (stereo partly drawn) [Example 47, 3-(1-(3-(1-(2-(2,6-dioxopiperidin-3-yl)-1,3-dioxoisoindolin-4-yl)piperidin-4-yl)propyl)-1H-pyrazol-4-yl)-N-(2-((R)-1-methylpyrrolidin-2-yl)-1H-pyrrolo[3,2-c]pyridin-6-yl)benzamide], the IC50 in the assay on MV4-11 cells is not above 0.1 µM. For the same molecule, at MLLT1, the “MLLT1% Degradation @ 0.01 μM” value was “C (Category C: 25% ≤ C < 50% degradation)”, the “MLLT1% Degradation @ 0.1 μM” value is reported as “B (Category B: 50% ≤ B < 75% degradation)” and the “MLLT1% Degradation @ 1 μM” value was “A (Category A: A ≥ 75% degradation)”.

`CN1CCC[C@@H]1c1cc2cnc(NC(=O)c3ccc(OCC#Cc4cccc5c4CN(C4CCC(=O)NC4=O)C5=O)cc3F)cc2[nH]1` (stereo partly drawn) [Example 57, 4-((3-(2-(2,6-dioxopiperidin-3-yl)-1-oxoisoindolin-4-yl)prop-2-yn-1-yl)oxy)-2-fluoro-N-(2-((R)-1-methylpyrrolidin-2-yl)-1H-pyrrolo[3,2-c]pyridin-6-yl)benzamide]: the half-maximal inhibitory concentration (IC50) with MV4-11 cells was not above 0.1 µM. Besides, at MLLT1, the “MLLT1% Degradation @ 0.01 μM” value is listed as “A (Category A: A ≥ 75% degradation)”, the “MLLT1% Degradation @ 0.1 μM” value is “A (Category A: A ≥ 75% degradation)” and the “MLLT1% Degradation @ 1 μM” value is recorded as “A (Category A: A ≥ 75% degradation)”.

Regarding `CN1CCC[C@@H]1c1cc2cnc(NC(=O)CCCCCC3CCN(c4cccc5c4C(=O)N(C4CCC(=O)NC4=O)C5=O)CC3)cc2[nH]1` (stereo partly drawn) [Example 43, 6-(1-(2-(2,6-dioxopiperidin-3-yl)-1,3-dioxoisoindolin-4-yl)piperidin-4-yl)-N-(2-((R)-1-methylpyrrolidin-2-yl)-1H-pyrrolo[3,2-c]pyridin-6-yl)hexanamide], the IC50 in the assay on MV4-11 cells was not above 0.1 µM. At MLLT1, the “MLLT1% Degradation @ 0.1 μM” value is “A (Category A: A ≥ 75% degradation)” and the “MLLT1% Degradation @ 1 μM” value is “B (Category B: 50% ≤ B < 75% degradation)”.

In the case of `CN1CCC[C@@H]1c1cc2cnc(NC(=O)c3ccc(CCC#Cc4cccc5c4CN(C4CCC(=O)NC4=O)C5=O)cc3F)cc2[nH]1` (stereo partly drawn) [Example 54, 4-(4-(2-(2,6-dioxopiperidin-3-yl)-1-oxoisoindolin-4-yl)but-3-yn-1-yl)-2-fluoro-N-(2-((R)-1-methylpyrrolidin-2-yl)-1H-pyrrolo[3,2-c]pyridin-6-yl)benzamide], the IC50 in the assay on MV4-11 cells is not above 0.1 µM. Also, on MLLT1, the “MLLT1% Degradation @ 0.01 μM” value is recorded as “A (Category A: A ≥ 75% degradation)”, the “MLLT1% Degradation @ 0.1 μM” value is “A (Category A: A ≥ 75% degradation)” and the “MLLT1% Degradation @ 1 μM” value is reported as “B (Category B: 50% ≤ B < 75% degradation)”.

For `CN1CCC[C@@H]1c1cc2cnc(NC(=O)c3ccc(-c4cnn(CCCC#Cc5ccc6c(c5)CN(C5CCC(=O)NC5=O)C6=O)c4)cc3)cc2[nH]1` (stereo partly drawn) [Example 22, 4-(1-(5-(2-(2,6-dioxopiperidin-3-yl)-1-oxoisoindolin-5-yl)pent-4-yn-1-yl)-1H-pyrazol-4-yl)-N-(2-((R)-1-methylpyrrolidin-2-yl)-1H-pyrrolo[3,2-c]pyridin-6-yl)benzamide], the 50% inhibitory concentration (IC50) in the assay on MV4-11 cells is not above 0.1 µM. For the same molecule, at MLLT1, the “MLLT1% Degradation @ 0.01 μM” value was “A (Category A: A ≥ 75% degradation)”, the “MLLT1% Degradation @ 0.1 μM” value is listed as “A (Category A: A ≥ 75% degradation)” and the “MLLT1% Degradation @ 1 μM” value is given as “A (Category A: A ≥ 75% degradation)”.

As to `CN1CCC[C@@H]1c1cc2cnc(NC(=O)c3ccc(CCC#Cc4cccc5c4CN(C4CCC(=O)NC4=O)C5=O)cc3)cc2[nH]1` (stereo partly drawn) [Example 52, 4-(4-(2-(2,6-dioxopiperidin-3-yl)-1-oxoisoindolin-4-yl)but-3-yn-1-yl)-N-(2-((R)-1-methylpyrrolidin-2-yl)-1H-pyrrolo[3,2-c]pyridin-6-yl)benzamide], the half-inhibitory concentration (IC50) in the assay on MV4-11 cells is not above 0.1 µM. Also, at MLLT1, the “MLLT1% Degradation @ 0.01 μM” value is “A (Category A: A ≥ 75% degradation)”, the “MLLT1% Degradation @ 0.1 μM” value is “A (Category A: A ≥ 75% degradation)” and the “MLLT1% Degradation @ 1 μM” value is reported as “B (Category B: 50% ≤ B < 75% degradation)”.

For `CN1CCC[C@@H]1c1cc2cnc(NC(=O)COCCCCNc3cccc4c3C(=O)N(C3CCC(=O)NC3=O)C4=O)cc2[nH]1` (stereo partly drawn) [Example 40, 2-(4-((2-(2,6-dioxopiperidin-3-yl)-1,3-dioxoisoindolin-4-yl)amino)butoxy)-N-(2-((R)-1-methylpyrrolidin-2-yl)-1H-pyrrolo[3,2-c]pyridin-6-yl)acetamide], in the assay on MV4-11 cells, the IC50 was not above 0.1 µM. Further, at MLLT1, the “MLLT1% Degradation @ 0.1 μM” value is on record as “C (Category C: 25% ≤ C < 50% degradation)” and the “MLLT1% Degradation @ 1 μM” value is “B (Category B: 50% ≤ B < 75% degradation)”.

`CN1CCC[C@@H]1c1cc2cnc(NC(=O)c3ccc(-c4cnn(CCCC#Cc5cccc6c5CN(C5CCC(=O)NC5=O)C6=O)c4)cc3)cc2[nH]1` (stereo partly drawn) [Example 21, 4-(1-(5-(2-(2,6-dioxopiperidin-3-yl)-1-oxoisoindolin-4-yl)pent-4-yn-1-yl)-1H-pyrazol-4-yl)-N-(2-((R)-1-methylpyrrolidin-2-yl)-1H-pyrrolo[3,2-c]pyridin-6-yl)benzamide]: the IC50 in the assay on MV4-11 cells was not above 0.1 µM. Also, on MLLT1, the “MLLT1% Degradation @ 0.01 μM” value was “A (Category A: A ≥ 75% degradation)”, the “MLLT1% Degradation @ 0.1 μM” value is given as “A (Category A: A ≥ 75% degradation)” and the “MLLT1% Degradation @ 1 μM” value is “B (Category B: 50% ≤ B < 75% degradation)”.

Molecule `CN1CCC[C@@H]1c1cc2cnc(NC(=O)CCCC3CCN(c4cccc5c4C(=O)N(C4CCC(=O)NC4=O)C5=O)CC3)cc2[nH]1` (stereo partly drawn) [Example 41, 4-(1-(2-(2,6-dioxopiperidin-3-yl)-1,3-dioxoisoindolin-4-yl)piperidin-4-yl)-N-(2-((R)-1-methylpyrrolidin-2-yl)-1H-pyrrolo[3,2-c]pyridin-6-yl)butanamide] registered an IC50 in the assay with MV4-11 cells not above 0.1 µM. Also, at MLLT1, the “MLLT1% Degradation @ 0.01 μM” value was “B (Category B: 50% ≤ B < 75% degradation)”, the “MLLT1% Degradation @ 0.1 μM” value is “B (Category B: 50% ≤ B < 75% degradation)” and the “MLLT1% Degradation @ 1 μM” value was “A (Category A: A ≥ 75% degradation)”.

Take `C[C@H](C#Cc1cccc2c1CN(C1CCC(=O)NC1=O)C2=O)Oc1ccc(C(=O)Nc2cc3[nH]c([C@H]4CCCN4C)cc3cn2)cc1` (stereo partly drawn) [Example 25, 4-(((2R)-4-(2-(2,6-dioxopiperidin-3-yl)-1-oxoisoindolin-4-yl)but-3-yn-2-yl)oxy)-N-(2-((R)-1-methylpyrrolidin-2-yl)-1H-pyrrolo[3,2-c]pyridin-6-yl)benzamide]: the IC50 in the assay on MV4-11 cells was not above 0.1 µM. Also, on MLLT1, the “MLLT1% Degradation @ 0.01 μM” value was “A (Category A: A ≥ 75% degradation)”, the “MLLT1% Degradation @ 0.1 μM” value is given as “A (Category A: A ≥ 75% degradation)” and the “MLLT1% Degradation @ 1 μM” value was “A (Category A: A ≥ 75% degradation)”.

As to `CN1CCC[C@@H]1c1[nH]c2cc(NC(=O)CCCCCCNc3cccc4c3C(=O)N(C3CCC(=O)NC3=O)C4=O)ncc2c1Cl` (stereo partly drawn) [Example 33, N-{3-chloro-2-[(2R)-1-methylpyrrolidin-2-yl]-1H-pyrrolo[3,2-c]pyridin-6-yl}-7-{[2-(2,6-dioxopiperidin-3-yl)-1,3-dioxoisoindol-4-yl]amino}heptanamide], the IC50 with MV4-11 cells was not above 0.1 µM. Also, at MLLT1, the “MLLT1% Degradation @ 0.01 μM” value is given as “B (Category B: 50% ≤ B < 75% degradation)”, the “MLLT1% Degradation @ 0.1 μM” value was “A (Category A: A ≥ 75% degradation)” and the “MLLT1% Degradation @ 1 μM” value is “A (Category A: A ≥ 75% degradation)”.
